The assay has as its target T1, AR protein (Homo sapiens, UniProt P10275, T878A).
T1 construct: The percent AR protein degradation induced by these compounds at various concentrations in LNCaP cells; host or cells: LNCaP
T1 sequence (P10275 1-920 T878A): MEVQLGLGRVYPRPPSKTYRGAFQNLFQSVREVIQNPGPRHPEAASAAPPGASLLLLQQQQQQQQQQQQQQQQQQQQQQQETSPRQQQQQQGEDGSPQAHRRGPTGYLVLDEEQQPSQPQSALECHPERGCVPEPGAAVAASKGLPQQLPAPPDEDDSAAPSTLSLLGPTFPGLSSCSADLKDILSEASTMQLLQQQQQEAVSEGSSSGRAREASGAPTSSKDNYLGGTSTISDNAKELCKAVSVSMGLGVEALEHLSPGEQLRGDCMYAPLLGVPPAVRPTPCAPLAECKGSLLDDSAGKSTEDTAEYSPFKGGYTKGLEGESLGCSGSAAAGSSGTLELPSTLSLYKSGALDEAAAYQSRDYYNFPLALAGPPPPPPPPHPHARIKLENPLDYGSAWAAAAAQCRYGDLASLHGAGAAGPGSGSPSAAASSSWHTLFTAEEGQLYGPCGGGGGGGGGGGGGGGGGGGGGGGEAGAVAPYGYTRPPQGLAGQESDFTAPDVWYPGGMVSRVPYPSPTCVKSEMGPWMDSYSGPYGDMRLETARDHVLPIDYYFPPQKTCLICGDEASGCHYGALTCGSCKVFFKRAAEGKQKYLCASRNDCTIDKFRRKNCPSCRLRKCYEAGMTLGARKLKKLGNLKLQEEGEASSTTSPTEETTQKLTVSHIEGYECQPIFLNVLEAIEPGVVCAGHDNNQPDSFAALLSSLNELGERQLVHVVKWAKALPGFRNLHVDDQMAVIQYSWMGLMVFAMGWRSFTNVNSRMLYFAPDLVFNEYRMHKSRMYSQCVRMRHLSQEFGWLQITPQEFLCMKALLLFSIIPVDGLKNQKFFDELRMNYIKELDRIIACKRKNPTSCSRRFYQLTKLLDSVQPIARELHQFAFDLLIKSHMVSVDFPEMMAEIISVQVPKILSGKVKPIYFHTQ
As to the kind of experiment: AR protein degradation in LNCaP cells (Western blotting). Type of assay: cell-based. As to conditions: treatment time 6 h, average of three independent experiments; for Dmax at 0.01 µM / Dmax at 0.1 µM / Dmax at 1 µM / Dmax at 10 µM: LNCaP; for Dmax at 0.1 µM / Dmax at 1 µM / Dmax at 10 µM: read-out: % AR protein degradation in LNCaP Cells. Here is the method:
Cell lines and Cell Culture: All the LNCaP, VCaP and 22RV1 cells used were purchased from American Type Culture Collection (ATCC). […] All of the cells were supplemented with 10% fetal bovine serum (Invitrogen) at 37° C. in a humidified 5% CO2 incubator.
Western Blotting. Treated cells were lysed by RIPA buffer supplemented with protease and phosphatase inhibitors. […] Software ImageJ was used to quantify the percentage of AR degradation. The net protein bands and loading controls are calculated by deducting the background from the inverted band value. The final relative quantification values are the ratio of net band to net loading control.
(In western blotting, separated proteins are transferred to a membrane and probed.)

A value given as a limit tells only on which side of the number the result lay.

`Cc1ncsc1-c1ccc(CNC(=O)C2C[C@@H](O)CN2C(=O)[C@@H](NC(=O)CCCCCCCNC(=O)c2ccc(N3C(=S)N(c4ccc(C#N)c(C(F)(F)F)c4)C(=O)C3(C)C)cc2F)C(C)(C)C)cc1` (stereo partly drawn) [Compound 13, (4R)-1-((S)-2-(8-(4-(3-(4-Cyano-3-(trifluoromethyl)phenyl)-5,5-dimethyl-4-oxo-2-thioxoimidazolidin-1-yl)-2-fluorobenzamido)octanamido)-3,3-dimethylbutanoyl)-4-hydroxy-N-(4-(4-methylthiazol-5-yl)benzyl)pyrrolidine-2-carboxamide]: the Dmax at 0.01 µM (0.01 μM) was found to be 8%. In addition, under “0.1 μM”, the Dmax at 0.1 µM was determined as 29%. In addition, the Dmax at 1 µM (1 μM) came to 65%.
Turning to `Cc1ncsc1-c1ccc(CNC(=O)C2C[C@@H](O)CN2C(=O)[C@@H](NC(=O)CCCCCNC(=O)c2ccc(N3C(=S)N(c4ccc(C#N)c(C(F)(F)F)c4)C(=O)C3(C)C)cc2F)C(C)(C)C)cc1` (stereo partly drawn) [Compound 11, (4R)-1-((S)-2-(6-(4-(3-(4-Cyano-3-(trifluoromethyl)phenyl)-5,5-dimethyl-4-oxo-2-thioxoimidazolidin-1-yl)-2-fluorobenzamido)hexanamido)-3,3-dimethylbutanoyl)-4-hydroxy-N-(4-(4-methylthiazol-5-yl)benzyl)pyrrolidine-2-carboxamide], the Dmax at 0.1 µM (0.1 μM) turned out to be 11%. Moreover, the Dmax at 1 µM (1 μM) was found to be 25%. In addition, the Dmax at 10 µM (10 μM) came out at 29%.
`Cc1ncsc1-c1ccc(CNC(=O)C2C[C@@H](O)CN2C(=O)[C@@H](NC(=O)CCCCCCCCCCNC(=O)c2ccc(N3C(=S)N(c4ccc(C#N)c(C(F)(F)F)c4)C(=O)C3(C)C)cc2F)C(C)(C)C)cc1` (stereo partly drawn) [Compound 16, (4R)-1-((S)-2-(11-(4-(3-(4-Cyano-3-(trifluoromethyl)phenyl)-5,5-dimethyl-4-oxo-2-thioxoimidazolidin-1-yl)-2-fluorobenzamido)undecanamido)-3,3-dimethylbutanoyl)-4-hydroxy-N-(4-(4-methylthiazol-5-yl)benzyl)pyrrolidine-2-carboxamide] yielded a Dmax at 0.01 µM (0.01 μM) of 11%. Besides, the Dmax at 0.1 µM (0.1 μM) is 48%. Also, the Dmax at 1 µM (1 μM) is 86%.
Take `Cc1ncsc1-c1ccc(CNC(=O)C2C[C@@H](O)CN2C(=O)[C@@H](NC(=O)CCNC(=O)c2ccc(N3C(=S)N(c4ccc(C#N)c(C(F)(F)F)c4)C(=O)C3(C)C)cc2F)C(C)(C)C)cc1` (stereo partly drawn) [Compound 8, (4R)-1-((S)-2-(3-(4-(3-(4-Cyano-3-(trifluoromethyl)phenyl)-5,5-dimethyl-4-oxo-2-thioxoimidazolidin-1-yl)-2-fluorobenzamido)propanamido)-3,3-dimethylbutanoyl)-4-hydroxy-N-(4-(4-methylthiazol-5-yl)benzyl)pyrrolidine-2-carboxamide]: the Dmax at 0.1 µM (0.1 μM) was determined as 26%. Besides, under “1 μM”, the Dmax at 1 µM was 35%. For the same compound, the Dmax at 10 µM (10 μM) was 28%.
With `Cc1cc([C@H](C(=O)N2C[C@H](O)C[C@H]2C(=O)N[C@@H](CC(=O)NCCCCCCCCCNC(=O)c2ccc(C(=O)N[C@H]3C(C)(C)[C@H](Oc4ccc(C#N)c(Cl)c4)C3(C)C)cc2)c2ccc(-c3scnc3C)cc2)C(C)C)on1` [Compound 39, N1-((1r,3r)-3-(3-Chloro-4-cyanophenoxy)-2,2,4,4-tetramethylcyclobutyl)-N4-(9-((S)-3-((2S,4R)-4-hydroxy-1-((R)-3-methyl-2-(3-methylisoxazol-5-yl)butanoyl)pyrrolidine-2-carboxamido)-3-(4-(4-methylthiazol-5-yl)phenyl)propanamido)nonyl)terephthalamide], the Dmax at 0.01 µM (0.01 μM) came to 43%. For the same compound, the Dmax at 0.1 µM (0.1 μM) was found to be 91%. Under “1 μM”, the Dmax at 1 µM turned out to be 96%.
Regarding `Cc1ncsc1-c1ccc([C@@H](CC(=O)N2CCC(N3CCC(C#Cc4ccc(C(=O)N[C@H]5C(C)(C)[C@H](Oc6ccc(C#N)c(Cl)c6)C5(C)C)cc4)CC3)CC2)NC(=O)[C@@H]2C[C@@H](O)CN2C(=O)[C@@H](NC(=O)C2(F)CC2)C(C)(C)C)cc1` [Compound 37, (2S,4R)—N—((R)-3-(4-((4-(((1r,3r)-3-(3-Chloro-4-cyanophenoxy)-2,2,4,4-tetramethyl-cyclobutyl)carbamoyl)phenyl)ethynyl)-[1,4′-bipiperidin]-1′-yl)-1-(4-(4-methylthiazol-5-yl)phenyl)-3-oxopropyl)-1-((S)-2-(1-fluorocyclopropane-1-carboxamido)-3,3-dimethyl-butanoyl)-4-hydroxypyrrolidine-2-carboxamide], the “% AR protein degradation in LNCaP Cells” value runs as follows: (0.1 μM) below 5%; (1 μM) below 5%; (10 μM) below 5%.
In turn, `Cc1ncsc1-c1ccc([C@H](C)NC(=O)[C@@H]2C[C@@H](O)CN2C(=O)[C@@H](NC(=O)CCCCN2CCN(c3ccc(C#Cc4ccc(N5C(=S)N(c6ccc(C#N)c(C(F)(F)F)c6)C(=O)C5(C)C)cc4)cn3)CC2)C(C)(C)C)cc1` [Compound 22, (2S,4R)-1-((S)-2-(5-(4-(5-((4-(3-(4-Cyano-3-(trifluoromethyl)phenyl)-5,5-dimethyl-4-oxo-2-thioxoimidazolidin-1-yl)phenyl)ethynyl)pyridin-2-yl)piperazin-1-yl)pentanamido)-3,3-dimethylbutanoyl)-4-hydroxy-N—((S)-1-(4-(4-methylthiazol-5-yl)phenyl)ethyl)pyrrolidine-2-carboxamide] came in with a Dmax at 0.01 µM (0.01 μM) of 28%. Further, under “0.1 μM”, the Dmax at 0.1 µM was 48%. Moreover, the Dmax at 1 µM (1 μM) stood at 89%.
With `Cc1ncsc1-c1ccc(CNC(=O)C2C[C@@H](O)CN2C(=O)[C@@H](NC(=O)CCOCCOCCNC(=O)c2ccc(N3C(=S)N(c4ccc(C#N)c(C(F)(F)F)c4)C(=O)C3(C)C)cc2F)C(C)(C)C)cc1` (stereo partly drawn) [Compound 18, (4R)-1-((S)-13-(tert-Butyl)-1-(4-(3-(4-cyano-3-(trifluoromethyl)phenyl)-5,5-dimethyl-4-oxo-2-thioxoimidazolidin-1-yl)-2-fluorophenyl)-1,11-dioxo-5,8-dioxa-2,12-diazatetradecan-14-oyl)-4-hydroxy-N-(4-(4-methylthiazol-5-yl)benzyl)pyrrolidine-2-carboxamide], where the note is “0.1 μM”, the Dmax at 0.1 µM turned out to be 32%. Besides, the Dmax at 1 µM (1 μM) amounted to 35%. The Dmax at 10 µM (10 μM) is 40%.
For the setting “0.01 μM”, `Cc1cc([C@H](C(=O)N2C[C@H](O)C[C@H]2C(=O)N[C@@H](CC(=O)NCCCCCCCCCNC(=O)c2ccc(N3C(=S)N(c4ccc(C#N)c(C(F)(F)F)c4)C(=O)C3(C)C)cc2F)c2ccc(-c3scnc3C)cc2)C(C)C)on1` [Compound 26, (2S,4R)—N—((S)-3-((9-(4-(3-(4-Cyano-3-(trifluoromethyl)phenyl)-5,5-dimethyl-4-oxo-2-thioxoimidazolidin-1-yl)-2-fluorobenzamido)nonyl)amino)-1-(4-(4-methylthiazol-5-yl)phenyl)-3-oxopropyl)-4-hydroxy-1-((R)-3-methyl-2-(3-methylisoxazol-5-yl)butanoyl)pyrrolidine-2-carboxamide] yielded a Dmax at 0.01 µM of 11%. Moreover, the Dmax at 0.1 µM (0.1 μM) stood at 50%. The Dmax at 1 µM (1 μM) was determined as 87%.
For the compound `CC(=O)N[C@H](C(=O)N1C[C@H](O)C[C@H]1C(=O)N[C@@H](CC(=O)N1CCC(N2CCC(C#Cc3ccc(C(=O)N[C@H]4C(C)(C)[C@H](Oc5ccc(C#N)c(Cl)c5)C4(C)C)cc3)CC2)CC1)c1ccc(-c2scnc2C)cc1)C(C)(C)C` [Compound 36, (2S,4R)-1-((S)-2-Acetamido-3,3-dimethylbutanoyl)-N—((S)-3-(4-((4-(((1r,3r)-3-(3-chloro-4-cyanophenoxy)-2,2,4,4-tetramethylcyclobutyl)carbamoyl)phenyl)ethynyl)-[1,4′-bipiperidin]-1′-yl)-1-(4-(4-methylthiazol-5-yl)phenyl)-3-oxopropyl)-4-hydroxypyrrolidine-2-carboxamide], the “% AR protein degradation in LNCaP Cells” value runs as follows: (0.01 μM) 39%; (0.1 μM) 77%; (1 μM) 99%.

The values are drawn from patent US20220081435A1, “ANDROGEN RECEPTOR PROTEIN DEGRADERS” (THE REGENTS OF THE UNIVERSITY OF MICHIGAN, priority 2019, published 2022).
